≈ marks a conversion by molar mass, not a printed value.
Tests used:
P. aeruginosa ATCC 27853 = assay: Murine pneumonia model, aerosolized treatment; assay type: in vivo, P. aeruginosa in CD1 mice; details: lung burden; Tobramycin 4.2mg/mL 20 min; group 9
Procedure: Peritonitis and UTI murine models were performed at the Department of Microbiology & Infection Control, Statens Serum Institute, Copenhagen, Denmark, under approval by the National Committee of Animal Ethics, Denmark, and adhered to the standards of EU Directive 2010/63/EU. The mouse pneumonia model was performed by Evotec Ltd, United Kingdom, under UK Home Office Licenses and with local ethical committee clearance. All animal studies were contracted by Adenium Biotech ApS.
Peptides were prepared in Ringer’s acetate pH 6.0 (vehicle) at 34 mg mL^−1. Comparator antibiotics included meropenem (Meronem®, AstraZeneca), polymyxin B sulfate (Sigma) and tobramycin (Novartis).
P. aeruginosa pneumonia in vivo model was prepared as follows: male CD1 mice were immunosuppressed with cyclophosphamide 200 mg kg^−1 on day −4 and 150 mg kg^−1 on day −1. […] Mouse weights were recorded once-daily following infection to ensure animals remained within ethical limits and to monitor efficacy of treatment. All mice remaining in the study at 34 h post infection were euthanized and the burden of P. aeruginosa in the lungs was determined. […] The lung homogenates were diluted appropriately then quantitatively cultured on to Pseudomonas-selective agar and incubated at 37 °C for 24 h before the number of colonies was counted. […]

P. aeruginosa = assay: microbe, parasite or virus in culture; details: Pseudomonas aeruginosa, ATCC27853, read-out: MIC against P. aeruginosa (ATCC 27853), as stated for the pneumonia model
In short: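 Broth microdilution in MHB, 2-fold 12-point series from 128 or 64 down to 0.06 or 0.03 μg mL^−1, 5 × 10^5 CFU mL^−1. Extra runs in CAMHB per CLSI and in MHB with 1% agarose; n ≥ 6.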

`NC[C@H]1O[C@H](O[C@H]2[C@H](O)[C@@H](O[C@H]3O[C@H](CO)[C@@H](O)[C@H](N)[C@H]3O)[C@H](N)C[C@@H]2N)[C@H](N)C[C@@H]1O` [tobramycin] was tested, and the “Log Group Geometric mean (CFU/g)” value (P. aeruginosa ATCC 27853) was 2.68 CFU/g and the MIC (P. aeruginosa) was 0.5 to 2 µg/mL (≈ 1.07 to 4.28 µM).

Source: PMC7311426, “An amphipathic peptide with antibiotic activity against multidrug-resistant Gram-negative bacteria” (Nature Communications, 2020)
